According to patent US20220125765A1, “PHARMACEUTICAL COMBINATIONS COMPRISING MEBENDAZOLE AND A STRONG OR MODERATE CYP1A2 INHIBITOR” (ZEPHAPHARM LTD, priority 2019, published 2022):
Read-outs that look alike come from different tables or passages of the source.

Key:
SXFS A-204 = assay: 2D monolayer CellTiter-Blue viability, soft tissue sarcoma A-204; format: cell-based; conditions: 72 h
Description: (§1) Seventeen compounds, including mebendazole (Batch no. […] Efficacy of compounds was assessed using CellTiter-Blue® Cell Viability Assay. Anti-tumor activity is expressed as absolute and relative IC50 and IC70 values, calculated by non-linear regression analysis.

[1] = Stability in human liver microsomes without and with cimetidine or furafylline (Example 4); format: in vitro ADME; conditions: human, liver microsomes, substrate 1 μM
Description: A minus cofactor control incubation was included for each compound tested where 0.1 M phosphate buffer pH 7.4 was added instead of NADPH (minus NADPH). […] The samples were analysed for mebendazole or phenacetin using LC-MS/MS.
A minus cofactor control incubation was included for each compound tested where 0.1 M phosphate buffer pH 7.4 was added instead of cofactor (minus NADPH). […] The samples were analysed for mebendazole or phenacetin using LC-MS/MS.

CYP2B6 = target: T1, CYP2B6 (Homo sapiens, UniProt P20813); assay: Cytochrome P450 reaction phenotyping, recombinant CYP2B6 (Bactosomes)
T1 sequence (P20813 1-491): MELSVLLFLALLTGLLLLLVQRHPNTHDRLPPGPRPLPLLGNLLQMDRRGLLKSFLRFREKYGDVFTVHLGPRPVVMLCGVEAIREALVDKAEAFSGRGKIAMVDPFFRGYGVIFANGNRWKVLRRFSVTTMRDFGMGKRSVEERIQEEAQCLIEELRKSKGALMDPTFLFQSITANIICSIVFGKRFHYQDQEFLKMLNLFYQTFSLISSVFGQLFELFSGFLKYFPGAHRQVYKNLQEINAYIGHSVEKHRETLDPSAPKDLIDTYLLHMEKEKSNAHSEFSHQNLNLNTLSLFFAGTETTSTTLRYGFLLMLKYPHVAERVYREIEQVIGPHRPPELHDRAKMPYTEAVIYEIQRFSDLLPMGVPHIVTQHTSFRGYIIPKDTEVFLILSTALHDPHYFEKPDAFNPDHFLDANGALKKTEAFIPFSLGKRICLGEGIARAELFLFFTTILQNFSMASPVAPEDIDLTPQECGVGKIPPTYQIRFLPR
Description: Incubations were also performed using control Bactosomes™ (no P450 enzymes present) to reveal any non-enzymatic degradation. Control compounds known to be metabolised specifically by each P450 isoform were included. All incubations were performed singularly for each test compound.
Incubations were also performed using control Bactosomes™ (no P450 enzymes present) to reveal any non-enzymatic degradation. Control compounds known to be metabolised specifically by each P450 isoform were included. All incubations were performed singularly for each test compound. […] The reactions were stopped by transferring an aliquot of incubate to quench solvent at the appropriate time points, in a 1:3 ratio. The termination plates were centrifuged at 3,000 rpm for 20 min at 4° C. to precipitate the protein.

[2] = tested on: 6 ovarian cancer (OVXF) and 6 renal cancer (RXF) cell lines; assay: 2D monolayer CellTiter-Blue viability, panel geometric mean (Example 10); format: cell-based; conditions: 12 cell lines, 72 h
Description: Mebendazole was tested in vitro across a panel of 12 tumor cell lines of ovarian and renal cancer by using a 2D monolayer assay. […] OVXF 899L and RXF 486L are P-gp expressing, multidrug resistant cell lines.
Anti-tumor activity is expressed as absolute and relative IC50/70 values, calculated by 4-parameter non-linear curve fit.

NBXF SK-N-AS = assay: 2D monolayer CellTiter-Blue viability, neuroblastoma SK-N-AS; format: cell-based; conditions: 72 h
Description: as §1

NBXF SK-N-BE(2) = assay: 2D monolayer CellTiter-Blue viability, neuroblastoma SK-N-BE(2); format: cell-based; conditions: 72 h
Description: as §1

[3] = pH 7.4, with cimetidine 30 μM, plus 30 μM cimetidine
[4] = pH 7.4, with cimetidine 100 μM, plus 100 μM cimetidine
[5] = pH 7.4, with cimetidine 300 μM, plus 300 μM cimetidine

COC(=O)Nc1nc2ccc(C(=O)c3ccccc3)cc2[nH]1 [Mebendazole, methyl N-(6-benzoyl-1H-benzimidazol-2-yl)carbamate]
Test/Control (%) at Drug Concentration (SXFS A-204; A-204, 1.0E+00 μM): 45%
Test/Control (%) at Drug Concentration (SXFS A-204; A-204, 1.0E+01 μM): 28%
Test/Control (%) at Drug Concentration (SXFS A-204; A-204, 1.0E+02 μM): 10%
Test/Control (%) at Drug Concentration (SXFS A-204; A-204, 1.0E−01 μM): 79%
Test/Control (%) at Drug Concentration (SXFS A-204; A-204, 1.0E−02 μM): 96%
Test/Control (%) at Drug Concentration (SXFS A-204; A-204, 3.2E+00 μM): 35%
Test/Control (%) at Drug Concentration (SXFS A-204; A-204, 3.2E+01 μM): 20%
Test/Control (%) at Drug Concentration (SXFS A-204; A-204, 3.2E−01 μM): 60%
Test/Control (%) at Drug Concentration (SXFS A-204; A-204, 3.2E−02 μM): 83%
Test/Control (%) at Drug Concentration (SXFS A-204; A-204, 3.2E−03 μM): 114%
half-life at 1 μM [1, 3]: 1.28 h
microsomal CLint at 1 μM [1, 3]: 18 µL/min/mg
half-life at 1 μM [1, 4]: 1.3 h
microsomal CLint at 1 μM [1, 4]: 17.8 µL/min/mg
half-life at 1 μM [1, 5]: 1.54 h
microsomal CLint at 1 μM [1, 5]: 15 µL/min/mg
microsomal CLint at 1 μM ([1]; pH 7.4, with furafylline 3 μM, plus 3 μM furafylline): 2.84 µL/min/mg
microsomal CLint at 1 μM ([1]; pH 7.4, with furafylline 10 μM, plus 10 μM furafylline): 0.232 µL/min/mg
microsomal CLint at 1 μM ([1]; pH 7.4, with furafylline 30 μM, plus 30 μM furafylline): 0.336 µL/min/mg
half-life at 1 μM ([1]; pH 7.4, no inhibitor): 1.04 h
microsomal CLint at 1 μM ([1]; pH 7.4, no inhibitor): 22.2 µL/min/mg
Compound Remaining (% of 0 min) (CYP2B6; CYP2B6, 5 μM, 0 min): 100 % of 0 min
Compound Remaining (% of 0 min) (CYP2B6; CYP2B6, 5 μM, 5 min): 117 % of 0 min
Compound Remaining (% of 0 min) (CYP2B6; CYP2B6, 5 μM, 15 min): 108 % of 0 min
Compound Remaining (% of 0 min) (CYP2B6; CYP2B6, 5 μM, 30 min): 112 % of 0 min
Compound Remaining (% of 0 min) (CYP2B6; CYP2B6, 5 μM, 45 min): 113 % of 0 min
% compound remaining (CYP2B6; CYP2B6, 5 μM, time not stated): > 87.5%
t1/2 (CYP2B6; CYP2B6, substrate 5 μM): >2.25 h
half-life at 5 μM (CYP2B6; human, recombinant CYP2B6 (Bactosomes), pH 7.4): > 2.25 h
Geometric mean Abs. IC70 [2]: 1515 nM
Geometric mean Rel. IC70 [2]: 801 nM
IC50 ([2]; read-out: Geometric mean Abs. IC50): 941 nM
IC50 ([2]; read-out: Geometric mean Rel. IC50): 587 nM
Test/Control (%) at Drug Concentration (NBXF SK-N-AS; 1.0E+00 μM): 31%
Test/Control (%) at Drug Concentration (NBXF SK-N-AS; 1.0E+01 μM): 21%
Test/Control (%) at Drug Concentration (NBXF SK-N-AS; 1.0E+02 μM): 8%
Test/Control (%) at Drug Concentration (NBXF SK-N-AS; 1.0E−01 μM): 62%
Test/Control (%) at Drug Concentration (NBXF SK-N-AS; 1.0E−02 μM): 91%
Test/Control (%) at Drug Concentration (NBXF SK-N-AS; 3.2E+00 μM): 28%
Test/Control (%) at Drug Concentration (NBXF SK-N-AS; 3.2E+01 μM): 19%
Test/Control (%) at Drug Concentration (NBXF SK-N-AS; 3.2E−01 μM): 36%
Test/Control (%) at Drug Concentration (NBXF SK-N-AS; 3.2E−02 μM): 84%
Test/Control (%) at Drug Concentration (NBXF SK-N-AS; 3.2E−03 μM): 89%
Test/Control (%) at Drug Concentration (NBXF SK-N-BE(2); 1.0E+00 μM): 13%
Test/Control (%) at Drug Concentration (NBXF SK-N-BE(2); 1.0E+01 μM): 3%
Test/Control (%) at Drug Concentration (NBXF SK-N-BE(2); 1.0E+02 μM): −1%
Test/Control (%) at Drug Concentration (NBXF SK-N-BE(2); 1.0E−01 μM): 55%
Test/Control (%) at Drug Concentration (NBXF SK-N-BE(2); 1.0E−02 μM): 85%
Test/Control (%) at Drug Concentration (NBXF SK-N-BE(2); 3.2E+00 μM): 6%
Test/Control (%) at Drug Concentration (NBXF SK-N-BE(2); 3.2E+01 μM): 2%
Test/Control (%) at Drug Concentration (NBXF SK-N-BE(2); 3.2E−01 μM): 23%
Test/Control (%) at Drug Concentration (NBXF SK-N-BE(2); 3.2E−02 μM): 80%
Test/Control (%) at Drug Concentration (NBXF SK-N-BE(2); 3.2E−03 μM): 87%
